The record followed here is patent US20260365670A1, “EGFR INHIBITORS AND USES THEREOF” (DIZAL (JIANGSU) PHARMACEUTICAL CO., LTD., priority 2022, published 2026).

Like-named read-outs stand apart in the source and are kept apart here.

The test system of assay [1] is Ba/F3 cells expressing EGFR mutations. As to the kind of experiment: Cell proliferation assay, Ba/F3 cells expressing EGFR mutations (CellTiter-Glo, 72 hours). Format: cell-based. As to conditions: CellTiter-Glo. On the procedure:
(§1) Biological Example 2: Cell Proliferation Assays
(§2) Ba/F3 cells expressing EGFR mutations were seeded in 384-well plates at 5000 cells/well in RPMI1640 medium containing […]. PC-9 at 500 cells/well was seeded into 384-well plates in RPMI1640 medium with 10% FBS. After overnight incubation, the assay plates were dosed with compounds at a series of concentrations. Alongside dosing the assay plates, the day 0 plate was processed using CellTiter-Glo® Luminescent Cell Viability Assay (Promega) to measure the number of viable cells (G0). The assay plates were further incubated for 72 hours and the number of viable cells (G3) was measured. The percentage of proliferation was calculated as: […]=100×(G3 value of sample well−G0 value)/(G3 value of DMSO control−G0 value). The concentration of compound producing 50% proliferation inhibition (GI50) was further calculated in best-fit curves using XLFit software. N/A=not available.

In assay [2] the test system is PC-9. Put plainly: Cell proliferation assay, PC-9 cells (CellTiter-Glo, 72 hours). To be noted: PC9 cells, CellTiter-Glo, read-out: PC9 GI50. The class given is cell-based. How it is done: as §1, §2
Background: ATP-based viability assays read luminescence as a measure of living cells.

Where [3] appears, read: BaF3 cells, EGFR DEL19-C797S, read-out: DEL19-C797S/BaF3 GI50.
Setting [4] is: BaF3 cells, EGFR DEL19-T790-C797S, read-out: DEL19-T790-C797S/BaF3 GI50.
Where [5] appears, read: BaF3 cells, EGFR L858R, read-out: L858R/BaF3 GI50.
[6] abbreviates: BaF3 cells, EGFR L858R-C797S, read-out: L858R-C797S/BaF3 GI50.
[7] abbreviates: BaF3 cells, EGFR L858R-T790-C797S, read-out: L858R-T790-C797S/BaF3 GI50.
The mark [8] stands for this setting: BaF3 cells, EGFR L858R-T790M, read-out: L858R-T790M/BaF3 GI50.
Where [9] appears, read: EGFR DEL19-T790M, read-out: DEL19-T790M GI50.

Take `CN(C)[C@@H]1CCN(c2ccc3nc4n(c3c2)C23CCC(CN(CCOc5c(cnn5C)-c5cc(cn(C)c5=O)C(=O)N4)C2)C3)C1` (single isomer, unassigned) [Example A66C]: the GI50 in assay [1] (setting [3]) amounted to 156 nM; in assay [1] (setting [4]), 548 nM; in assay [1] (setting [5]), 1580 nM; in assay [1] (setting [6]), 688 nM; in assay [1] (setting [7]) it was 549 nM; in assay [1] (setting [8]), 1520 nM. Further, the GI50 is 723 nM in assay [1] (setting [9]) and 703 nM in assay [2].
For `CN1CCN(C2CCN(c3ccc4nc5n(c4c3)C34CCC(CN(CCOc6c(cnn6C)-c6cc(cn(C)c6=O)C(=O)N5)C3)C4)C2)CC1` (single isomer, unassigned) [Example A80B2, 15,21-Dimethyl-5-[3-(4-methylpiperazin-1-yl)pyrrolidin-1-yl]-23-oxa-2,9,11,15,20,21,26-heptaazaheptacyclo[24.4.1.1^{1,28}.1^{13,17}.0^{2,10}.0^{3,8}.0^{18,22}]tritriaconta-3,5,7,9,13,17(33),18(22),19-octaene-12,16-dione], the GI50 in assay [1] (setting [3]) worked out at 0.5 nM; in assay [1] (setting [4]), 0.7 nM; in assay [1] (setting [5]), 0.63 nM; in assay [1] (setting [6]) it was 0.5 nM; in assay [1] (setting [7]) it was 0.73 nM; in assay [1] (setting [8]), 0.67 nM. The GI50 came to 0.7 nM in assay [1] (setting [9]) and 3.6 nM in assay [2].
Consider `CN1CCN(C2CCN(c3ccc4nc5n(c4c3)C34CCC(CN(CCOc6c(cnn6C)-c6cc(cn(C)c6=O)C(=O)N5)C3)C4)C2)CC1` (single isomer, unassigned) [Example A80A, 15,21-Dimethyl-5-[3-(4-methylpiperazin-1-yl)pyrrolidin-1-yl]-23-oxa-2,9,11,15,20,21,26-heptaazaheptacyclo[24.4.1.1^{1,28}.1^{13,17}.0^{2,10}.0^{3,8}.0^{18,22}]tritriaconta-3,5,7,9,13,17(33),18(22),19-octaene-12,16-dione], for which the GI50 in assay [1] (setting [3]) is 135 nM; in assay [1] (setting [4]), 587 nM; in assay [1] (setting [5]), 312 nM; in assay [1] (setting [6]), 193 nM; in assay [1] (setting [7]), 523 nM; in assay [1] (setting [8]), 450 nM. Also, the GI50 in assay [1] (setting [9]) amounted to 477 nM; in assay [2], 295 nM.
Regarding `CN(C)[C@H]1CCN(c2ccc3nc4n(c3c2)C23CCC(CN(CCOc5c(cnn5C)-c5cc(cn(C)c5=O)C(=O)N4)C2)C3)C1` (single isomer, unassigned) [Example A66A], the GI50 in assay [1] (setting [3]) worked out at 177 nM; in assay [1] (setting [4]), 466 nM; in assay [1] (setting [5]), 1140 nM; in assay [1] (setting [6]) it was 709 nM; in assay [1] (setting [7]) it was 600 nM; in assay [1] (setting [8]) it was 2130 nM. In addition, the GI50 in assay [1] (setting [9]) is 622 nM; in assay [2], 705 nM.
As for `CN(C)CC1(F)CN(c2ccc3nc4n(c3c2)C23CCC(CN(CCOc5c(cnn5C)-c5cc(cn(C)c5=O)C(=O)N4)C2)C3)C1` (single isomer, unassigned) [Example A72A], the GI50 amounted to 351 nM in assay [1] (setting [3]); 1060 nM in assay [1] (setting [4]); 866 nM in assay [1] (setting [5]); 632 nM in assay [1] (setting [6]); 1820 nM in assay [1] (setting [7]); 2770 nM in assay [1] (setting [8]). The figures for the GI50 in assay [1] (setting [9]) and in assay [2] were 1230 nM and 1060 nM, respectively.
For the compound `C[C@@H]1CCCOc2c(cnn2C)-c2cc(cn(C3CC3)c2=O)C(=O)Nc2nc3ccc(N4CCN(C)CC4)cc3n2C1` [Example A15, (11R)-26-cyclopropyl-5,11-dimethyl-16-(4-methylpiperazin-1-yl)-7-oxa-4,5,13,20,22,26-hexaazapentacyclo[22.3.1.0^{2,6}.0^{13,21}.0^{14,19}]octacosa-1(28),2(6),3,14,16,18,20,24-octaene-23,27-dione], the GI50 amounted to 495 nM in assay [1] (Mus musculus, BaF3, 72 h, BaF3 cells, EGFR DEL19-C797S, read-out: DEL19-C797S/BaF3 GI50); 2100 nM in assay [1] (Mus musculus, BaF3, 72 h, BaF3 cells, EGFR DEL19-T790-C797S, read-out: DEL19-T790-C797S/BaF3 GI50); 1390 nM in assay [1] (Mus musculus, BaF3, 72 h, BaF3 cells, EGFR L858R, read-out: L858R/BaF3 GI50); 1580 nM in assay [1] (Mus musculus, BaF3, 72 h, BaF3 cells, EGFR L858R-C797S, read-out: L858R-C797S/BaF3 GI50); 4910 nM in assay [1] (Mus musculus, BaF3, 72 h, BaF3 cells, EGFR L858R-T790-C797S, read-out: L858R-T790-C797S/BaF3 GI50); 1550 nM in assay [1] (Mus musculus, BaF3, 72 h, BaF3 cells, EGFR L858R-T790M, read-out: L858R-T790M/BaF3 GI50). In addition, the GI50 in assay [1] (Mus musculus, BaF3, 72 h, EGFR DEL19-T790M, read-out: DEL19-T790M GI50) is 2620 nM; in assay [2] (Homo sapiens, PC-9, 72 h), 2070 nM.
As to `CN1CC2(CCN(c3ccc4nc5n(c4c3)C34CCC(CN(CCOc6c(cnn6C)-c6cc(cn(C)c6=O)C(=O)N5)C3)C4)C2)C1` (single isomer, unassigned) [Example A73A], the GI50 in assay [1] (setting [3]) worked out at 94 nM; in assay [1] (setting [4]), 302 nM; in assay [1] (setting [5]) it was 550 nM; in assay [1] (setting [6]), 357 nM; in assay [1] (setting [7]), 184 nM; in assay [1] (setting [8]) it was 1100 nM. Further, the GI50 in assay [1] (setting [9]) came to 190 nM; in assay [2] it was 515 nM.
